Two compounds from ChEMBL document CHEMBL3525933 (Drug Metab Dispos, 2012) can be followed below.

What all share (assay type): ADME, organism-based
Series [1] can be described thus: Drug excretion in streptozotocin-induced diabetic Wistar rat feces treated with mangiferin at 400 mg/kg, po administered as single dose by HPLC-DAD analysis. To be noted: in vivo. Set-up: dose 400 mg/kg, route oral.
A further series is filed under the species Rattus norvegicus. Kind of series: Drug retention time in Wistar rat by HPLC-DAD analysis.
Series [2] in a line: Drug excretion in conventional Wistar rat urine treated with mangiferin at 400 mg/kg, po administered as single dose by HPLC-DAD analysis. Set-up: dose 400 mg/kg, route oral. To be noted: in vivo.
Series [3] can be described thus: Drug excretion in conventional Wistar rat feces treated with mangiferin at 400 mg/kg, po administered as single dose by HPLC-DAD analysis. More on the design: dose 400 mg/kg, route oral. To be noted: in vivo.
A short description of series [4]: Drug excretion in streptozotocin-induced diabetic Wistar rat urine treated with mangiferin at 400 mg/kg, po administered as single dose by HPLC-DAD analysis. As to conditions: in vivo. Set-up: dose 400 mg/kg, route oral.

The structures appear in SMILES notation.

For `O=c1c2cc(O)c(O)cc2oc2cc(O)cc(O)c12`, the Drug excretion entry in series [1], in series [2], in series [3] and in series [4] was “metabolite_detected” throughout. In the series filed under Rattus norvegicus, this compound displayed a Retention_time of 36 min.

Take `O=c1c2cc(O)ccc2oc2cccc(O)c12`: the Retention_time in the series listed under Rattus norvegicus is 40.4 min. For the same compound, the Drug excretion result in series [4] is “metabolite_detected”.
